Data as given in patent US6933319B2, “Resorcinol derivatives” (Pfizer Inc., priority 1999, dated 2005).
pIC50: −log10 of the molar value.

Target: T1, human tyrosinase (Homo sapiens, UniProt P14679)
T1 construct: endogenous in cells; host or cells: SKMEL 188 human melanoma cell line (lysate)
T1 sequence (P14679 19-529): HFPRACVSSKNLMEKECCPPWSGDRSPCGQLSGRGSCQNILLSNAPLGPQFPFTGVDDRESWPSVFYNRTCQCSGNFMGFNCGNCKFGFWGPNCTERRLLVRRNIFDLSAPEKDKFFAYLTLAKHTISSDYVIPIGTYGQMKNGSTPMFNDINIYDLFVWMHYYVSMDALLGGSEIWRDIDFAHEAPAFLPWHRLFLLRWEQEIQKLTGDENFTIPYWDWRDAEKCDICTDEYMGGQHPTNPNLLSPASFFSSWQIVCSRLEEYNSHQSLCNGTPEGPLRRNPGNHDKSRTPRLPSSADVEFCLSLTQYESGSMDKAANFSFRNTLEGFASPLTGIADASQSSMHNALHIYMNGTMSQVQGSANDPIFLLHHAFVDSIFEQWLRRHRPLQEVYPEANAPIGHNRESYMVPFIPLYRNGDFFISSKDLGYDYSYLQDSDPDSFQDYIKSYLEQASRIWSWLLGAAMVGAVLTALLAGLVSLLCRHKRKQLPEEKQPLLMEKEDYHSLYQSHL
Assay: Tyrosinase (DOPA Oxidase) Assay Using Cell Lysate
Type: biochemical
Details: SKMEL 188 human melanoma cell lysate; L-DOPA 100 μg/ml; incubated 8 hrs; read at 405 nm
Description: 1. Tyrosinase (DOPA Oxidase) Assay Using Cell Lysate:
Human melanoma cell line, SKMEL 188 (licensed from Memorial Sloan-Kettering), is used in the cell lysate assay and the screen. In the assay, compounds and L-dihydroxyphenylalanine (L-DOPA) (100 μg/ml) are incubated with the cell lysates containing human tyrosinase for 8 hrs before the plates are read at 405 nm. Potency of the compounds in DOPA oxidase assay is correlated very well with that in tyrosine hydroxylase assay using ^3H-tyrosine as a substrate.

ON=C1CCC(c2ccc(O)cc2O)C1 (racemic) [Example 23, (±)-3-(2,4-Dihydroxyphenyl)cyclopentanone oxime]
pIC50: ~5.70
